Key:
[1] = biological target: T1, pseudo-kinase domain (JH2, amino-acids 536-812 with 3 surface mutations W659A, W777A, F794H) of human V617F mutant JAK2 (Homo sapiens, UniProt O60674, F794H/V617F/W659A/W777A); assay: JAK2 LanthaScreen JH2-V617F binding assay; conditions: 50 nM tracer, 1 hour at 25° C., read-out: JH2 BIND V617F IC50
T1 construct: pseudo-kinase domain (JH2, amino-acids 536-812 with 3 surface mutations W659A, W777A, F794H); His (C); Avi (biotinylated) (C); purchased BPS Bioscience 79498; host or cells: baculovirus expression system
Procedure: Example C. JAK2 LanthaScreen JH2-V617F Binding Assay
(§1) JAK2 JH2-V617F binding assay utilizes pseudo-kinase domain (JH2, amino-acids 536-812 with 3 surface mutations W659A, W777A, F794H) of human V617F mutant JAK2 expressed as C-terminal His-Avi-tagged, biotinylated protein in a baculovirus expression system (BPS Bioscience, Catalog #79498). The assay was conducted in black 384-well polystyrene plates in a final reaction volume of 20 μL. JAK2 JH2-V617F (0.26 nM) was incubated with compounds (100 nL serially diluted in DMSO) in the presence of 50 nM Fluorescent JAK2-JH2 Tracer (MedChem Express Catalog #HY-102055) and 0.25 nM Streptavidin-Tb cryptate (Cisbio Part #610SATLB) in assay buffer (50 mM Tris, pH=7.5, 10 mM MgCl2, 0.01% Brij-35, 0.1% BSA, 1 mM EGTA, 5% Glycerol and 5 mM DTT). Non-specific binding was accessed in the presence of 2 mM ATP. After incubation for 1 hour at 25° C., LanthaScreen signals were read on a PHERAstar FS plate reader (BMG LABTECH). Data was analyzed with IDBS XLfit and GraphPad Prism 5.0 software using a four parameter dose response curve to determine IC50 for each compound.

[2] = biological target: T2, pseudo-kinase domain (JH2, amino-acids 536-812 with 3 surface mutations W659A, W777A, F794H) of human Wild Type JAK2 (Homo sapiens, UniProt O60674, F794H/W659A/W777A); assay: JAK2 LanthaScreen JH2-WT binding assay; conditions: 50 nM tracer, 1 hour at 25° C., read-out: JH2 BIND WT IC50
T2 construct: pseudo-kinase domain (JH2, amino-acids 536-812 with 3 surface mutations W659A, W777A, F794H); His (C); Avi (biotinylated) (C); purchased BPS Bioscience 79463; host or cells: baculovirus expression system
Procedure: Example B. JAK2 LanthaScreen JH2-WT Binding Assay
as §1, with “JH2-WT” for “JH2-V617F”, “Wild Type” for “V617F mutant”, “#79463).” for “#79498).”, “JH2-WT (0.145” for “JH2-V617F (0.26”

[3] = biological target: T3, catalytic domain (JH1, amino acids 826-1132) of human JAK2 (Homo sapiens, UniProt O60674); assay: JAK2 LanthaScreen JH1 binding assay; conditions: 50 nM tracer, 2 hours at 25° C., read-out: JH1 BIND IC50
T3 construct: catalytic domain (JH1, amino acids 826-1132) of human JAK2; FLAG (N); purchased Carna Biosciences 08-445-20N; host or cells: baculovirus expression system
Procedure: Example A. JAK2 LanthaScreen […] Binding Assay
JAK2 JH1 binding assay utilizes catalytic domain (JH1, amino acids 826-1132) of human JAK2 expressed as N-terminal FLAG-tagged, biotinylated protein in a baculovirus expression system (Carna Biosciences, Product #08-445-20N). The assay was conducted in black 384-well polystyrene plates in a final reaction volume of 20 μL. JAK2 JH1 (1.5 nM) was incubated with compounds (100 nL serially diluted in DMSO) in the presence of 50 nM fluorescent JAK2-JH1 tracer and 0.5 nM Streptavidin-Tb cryptate (Cisbio Part #610SATLB) in assay buffer (50 mM Tris, pH=7.5, 10 mM MgCl2, 0.01% Brij-35, 0.1% BSA, 1 mM EGTA, 5% Glycerol and 5 mM DTT). Non-specific binding was accessed in the presence of 2 mM ATP. After incubation for 2 hours at 25° C., LanthaScreen signals were read on a PHERAstar FS plate reader (BMG LABTECH). Data was analyzed with IDBS XLfit and GraphPad Prism 5.0 software using a four parameter dose response curve to determine IC50 for each compound.

T2 sequence (O60674 536-812 W659A/W777A/F794H): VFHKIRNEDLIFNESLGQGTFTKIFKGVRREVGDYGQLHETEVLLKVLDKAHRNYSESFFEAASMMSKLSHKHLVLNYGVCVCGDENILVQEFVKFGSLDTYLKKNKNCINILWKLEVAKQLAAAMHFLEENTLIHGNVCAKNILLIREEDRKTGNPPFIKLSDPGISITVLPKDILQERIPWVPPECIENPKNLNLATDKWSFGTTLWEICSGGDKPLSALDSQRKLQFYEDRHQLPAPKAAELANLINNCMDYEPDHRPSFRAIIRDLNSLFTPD
T1 sequence (O60674 536-812 V617F/W659A/W777A/F794H): as the sequence (O60674 536-812 W659A/W777A/F794H) above, with V82F counted along it
T3 sequence (O60674 826-1132): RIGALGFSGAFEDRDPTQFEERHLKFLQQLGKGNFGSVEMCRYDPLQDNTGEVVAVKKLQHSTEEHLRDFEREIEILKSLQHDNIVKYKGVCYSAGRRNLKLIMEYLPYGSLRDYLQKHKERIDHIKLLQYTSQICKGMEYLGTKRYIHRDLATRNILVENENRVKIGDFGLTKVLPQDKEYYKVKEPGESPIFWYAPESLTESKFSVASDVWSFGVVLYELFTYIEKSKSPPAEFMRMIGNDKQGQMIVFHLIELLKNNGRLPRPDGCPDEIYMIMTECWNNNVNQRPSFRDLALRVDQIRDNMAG

Compound | IC50 [1] [nM] | IC50 [2] [nM] | IC50 [3] [nM]
COC(=O)N[C@H]1C[C@H](N2C(=O)NCc3cnc4[nH]c(C5CC5)c(-c5ccc6c(cnn6C(C)C)c5)c4c32)C1 [Example 36, Methyl ((1r,3r)-3-(8-cyclopropyl-9-(1-isopropyl-1H-indazol-5-yl)-2-oxo-2,3,4,7-tetrahydro-1H-pyrrolo[3′,2′:5,6]pyrido [4,3-d]pyrimidin-1-yl)cyclobutyl) carbamate] | 10 to 100 | 10 to 100 | > 1000
CC(C)n1ncc2cc(-c3c(-c4cnn(C)c4)[nH]c4ncc5c(c34)N(C3CCC4(CC3)CN(C(=O)NCC(F)F)C4)C(=O)NC5)ccc21 [Example 19, N-(2,2-Difluoroethyl)-7-(9-(1-isopropyl-1H-indazol-5-yl)-8-(1-methyl-1H-pyrazol-4-yl)-2-oxo-2,3,4,7-tetrahydro-1H-pyrrolo[3′,2′:5,6]pyrido[4,3-d]pyrimidin-1-yl)-2-azaspiro[3.5] nonane-2-carboxamide] | 10 to 100 | 10 to 100 | 100 to 500
CC(C)COC(=O)N[C@@H]1CC[C@@H](N2C(=O)NCc3cnc4[nH]c(-c5cnn(C)c5)c(-c5ccc6c(cnn6C(C)C)c5)c4c32)C1 [Example 12, Isobutyl ((1R,3R)-3-(9-(1-isopropyl-1H-indazol-5-yl)-8-(1-methyl-1H-pyrazol-4-yl)-2-oxo-2,3,4,7-tetrahydro-1H-pyrrolo[3′,2′:5,6]pyrido[4,3-d]pyrimidin-1-yl)cyclopentyl) carbamate] | 10 to 100 | 10 to 100 | > 1000
COC(=O)N[C@@H]1CC[C@@H](N2C(=O)NCc3cnc4[nH]c(-c5cnn(C)c5)c(-c5ccc6c(cnn6C6CCC6)c5)c4c32)C1 [Example 24, Methyl ((1R,3R)-3-(9-(1-cyclobutyl-1H-indazol-5-yl)-8-(1-methyl-1H-pyrazol-4-yl)-2-oxo-2,3,4,7-tetrahydro-1H-pyrrolo[3′,2′:5,6]pyrido[4,3-d]pyrimidin-1-yl)cyclopentyl) carbamate] | 10 to 100 | 10 to 100 | 100 to 500
COCc1ccc(-c2c(-c3cnn(C)c3)[nH]c3ncc4c(c23)N([C@@H]2CC[C@@H](NC(=O)OC)C2)C(=O)NC4)cc1 [Example 32, Methyl ((1R,3R)-3-(9-(4-(methoxymethyl)phenyl)-8-(1-methyl-1H-pyrazol-4-yl)-2-oxo-2,3,4,7-tetrahydro-1H-pyrrolo[3′,2′:5,6]pyrido[4,3-d]pyrimidin-1-yl)cyclopentyl) carbamate] | 10 to 100 | 10 to 100 | 500 to 1000
COC(=O)N[C@@H]1CC[C@@H](N2C(=O)NCc3cnc4[nH]c(-c5cnn(C)c5)c(-c5ccc6c(cnn6CC6CC6)c5)c4c32)C1 [Example 23, Methyl ((1R,3R)-3-(9-(1-(cyclopropylmethyl)-1H-indazol-5-yl)-8-(1-methyl-1H-pyrazol-4-yl)-2-oxo-2,3,4,7-tetrahydro-1H-pyrrolo[3′,2′:5,6]pyrido[4,3-d]pyrimidin-1-yl)cyclopentyl) carbamate] | 10 to 100 | ≤ 10 | 100 to 500
CNc1nc(=O)n([C@@H]2CC[C@@H](NC(=O)OC)C2)c2c1cnc1[nH]c(-c3cnn(C)c3)c(-c3ccc4c(cnn4C(C)C)c3)c12 [Example 42, Methyl ((1R,3R)-3-(9-(1-isopropyl-1H-indazol-5-yl)-8-(1-methyl-1H-pyrazol-4-yl)-4-(methylamino)-2-oxo-2,7-dihydro-1H-pyrrolo[3′,2′:5,6]pyrido[4,3-d]pyrimidin-1-yl)cyclopentyl)carbamate] | 10 to 100 | 10 to 100 | > 1000
CC(C)n1ncc2cc(-c3c(-c4cnn(C)c4)[nH]c4ncc5c(c34)N([C@H]3C[C@H](NS(C)(=O)=O)C3)C(=O)NC5)ccc21 [Example 3, N-((1r,3r)-3-(9-(1-Isopropyl-1H-indazol-5-yl)-8-(1-methyl-1H-pyrazol-4-yl)-2-oxo-2,3,4,7-tetrahydro-1H-pyrrolo[3′,2′:5,6]pyrido[4,3-d]pyrimidin-1-yl)cyclobutyl) methan esulfonamide] | ≤ 10 | ≤ 10 | 10 to 100
COC(=O)N[C@H]1C[C@H](N2C(=O)NCc3cnc4[nH]c(-c5ccc(CN6CCOCC6)cc5)c(-c5ccc6c(cnn6C(C)C)c5)c4c32)C1 [Example 33, Methyl ((1r,3r)-3-(9-(1-isopropyl-1H-indazol-5-yl)-8-(4-(morpholinomethyl)phenyl)-2-oxo-2,3,4,7-tetrahydro-1H-pyrrolo[3′,2′:5,6]pyrido[4,3-d]pyrimidin-1-yl)cyclobutyl)carbamate] | ≤ 10 | ≤ 10 | > 1000
CC(C)n1ncc2cc(-c3c(-c4cnn(C)c4)[nH]c4ncc5c(c34)N([C@@H]3CC[C@@H](NS(C)(=O)=O)C3)C(=O)NC5)ccc21 [Example 10, N-((1R,3R)-3-(9-(1-Isopropyl-1H-indazol-5-yl)-8-(1-methyl-1H-pyrazol-4-yl)-2-oxo-2,3,4,7-tetrahydro-1H-pyrrolo[3′,2′:5,6]pyrido[4,3-d]pyrimidin-1-yl)cyclopentyl) methanesulfonamide] | 100 to 500 | 10 to 100 | > 1000
CC(=O)N[C@H]1C[C@@H](N2C(=O)NCc3cnc4[nH]c(-c5cnn(C)c5)c(-c5ccc6c(cnn6C(C)C)c5)c4c32)C1 [Example 5, N-((1s,3s)-3-(9-(1-Isopropyl-1H-indazol-5-yl)-8-(1-methyl-1H-pyrazol-4-yl)-2-oxo-2,3,4,7-tetrahydro-1H-pyrrolo[3′,2′:5,6]pyrido[4,3-d]pyrimidin-1-yl)cyclobutyl) acetamide] | 10 to 100 | 10 to 100 | 500 to 1000
COC(=O)N[C@]1(C)CC[C@H](N2C(=O)NCc3cnc4[nH]c(-c5cnn(C)c5)c(-c5ccc6c(cnn6C(C)C)c5)c4c32)CC1 [Example 13, Methyl ((1s,4s)-4-(9-(1-isopropyl-1H-indazol-5-yl)-8-(1-methyl-1H-pyrazol-4-yl)-2-oxo-2,3,4,7-tetrahydro-1H-pyrrolo[3′,2′:5,6]pyrido[4,3-d]pyrimidin-1-yl)-1-methylcyclohexyl)carbamate] | 10 to 100 | 10 to 100 | > 1000
CC(C)n1ncc2cc(-c3c(-c4cnn(C)c4)[nH]c4ncc5c(c34)N(C3CCC4(CC3)CN(S(=O)(=O)C3(C)CC3)C4)C(=O)NC5)ccc21 [Example 20, 9-(1-isopropyl-1H-indazol-5-yl)-8-(1-methyl-1H-pyrazol-4-yl)-1-(2-((1-methylcyclopropyl)sulfonyl)-2-azaspiro[3.5]nonan-7-yl)-1,3,4,7-tetrahydro-2H-pyrrolo [3′,2′:5,6]pyrido[4,3-d]pyrimidin-2-one] | 10 to 100 | 10 to 100 | > 1000

Reference: US20240300948A1, “Heterocyclic Compounds As Kinase Inhibitors” (Incyte Corporation, priority 2023, published 2024)
